The values below come from PMC8249445, “Complex effects of macrolide venturicidins on bacterial F-ATPases likely contribute to their action as antibiotic adjuvants” (Scientific Reports, 2021).

pKi: −log10 of the molar value. Read-outs that look alike come from different tables or passages of the source.

The subject of one test is S. aureus (MRSA) strains. The conditions noted are these: cited from earlier work.
Another test concerns E. coli. The arrangement: method as in PMID 32424122. The conditions noted are these: complex growth medium; cited from earlier work.
Test [1] addresses T1, PaFOF1 in membranes from P. aeruginosa strain PAO1 (Pseudomonas aeruginosa, UniProt Q9HT15).
T1 construct: endogenous in cells; host or cells: P. aeruginosa strain PAO1, inverted membrane vesicles
The experiment in a line: ATP hydrolysis by P. aeruginosa PAO1 membranes, enzyme-coupled spectrophotometric assay. The class given is biochemical. The conditions noted are these: 38.5 mM selenite. Here is the method:
P. aeruginosa strain PAO1 was grown in LB medium at 37 °C as described. For preparation of IMV, final cultures used 1 L of LB per 2L baffled flask and were inoculated from an overnight culture at an initial OD600 ~ 0.025. Cultures were shaken at 250 rpm and monitored until they reached mid- to late-logarithmic growth phase (OD600, 1–1.4). Cultures were chilled and subsequent steps for cell lysis and isolation of IMV were done at 4 °C. Cells were sedimented by centrifugation (3,700 × g, 30 min). Cells from 1 to 2 L of culture (~ 2–3 g wet cells/L) were resuspended in 25–40 ml of STEM buffer (TEM buffer plus sucrose[55]), transferred to a 50 ml Oak Ridge tube, sedimented again (11,617 × g, 10 min), resuspended in 20–40 ml of STEM and frozen at -80 °C. Thawed cells were lysed by two sequential passages through an SLM-Aminco French pressure cell at ~ 16,000 psi, essentially as described for E. coli[55]; the pressure cell was enclosed in a clear biohazard bag (MiniGrip, IP2024B3T) during use to contain any aerosols formed. Unlysed cells and cell wall debris were removed by centrifugation (50 ml Oak Ridge tubes, 16,743 × g, 25 min): the supernate was diluted with MTGM7.5 buffer (50 mM MOPS-TRIS, 10%(v/v) glycerol, 5 mM Mg(CH3COO)2, pH 7.5) and centrifugation was repeated at least twice, recovering the supernate each time. The final supernatant lysate was stored at -80 °C. To isolate IMV, the cleared lysate was thawed quickly and diluted with MTGM7.5 as needed to fill 1 or 2 polycarbonate tubes for use in a Beckman Ti70 rotor. The IMV (membranes) were sedimented by ultracentrifugation (250,000 × g max) for 1 h, the membranes were resuspended in MTGM7.5 buffer to fill one Ti70 tube and ultracentrifugation was repeated for 45 min. The membranes were resuspended in a small volume of MTGM7.5 buffer (typically ≥ 10 mg membrane protein/ml) and homogenized manually (Potter–Elvehjem type). Small aliquots of the final membrane sample were quick-frozen in liquid nitrogen and stored at − 80 °C.
(§1) ATP hydrolysis by membrane vesicles was assayed spectrophotometrically[57] at 30 °C using an open-chamber, diode array spectrophotometer (Hewlett Packard 8453 UV–Vis) as described in[29]. The assay medium (1 ml per assay) contained 20 mM Mops/Tris, pH 8.0, 0.2 mM EDTA, 10 mM CH3COOK, 1 mM ATP, 3.2 mM Mg(CH3COO)2, 1 mM phosphoenolpyruvate, at least 0.3 mM NADH, 0.1 mg/ml pyruvate kinase, 0.1 mg/ml lactate dehydrogenase, 5 mM KCN, and 5 μM carbonyl cyanide 4-(trifluoromethoxy)-phenylhydrazone. As noted before, the rate of ATP hydrolysis by membranes increases to a small degree during assays. This is due, at least in part, to dissociation of a small fraction of EcF1 and/or ε from the membranes, since the increase is inhibited by added ε (e.g., Fig. 5). To avoid interference of this increase with the changes of ATPase activity induced by venturicidins, unless indicated otherwise, measurement of ATPase activities were started 60 min after addition of membranes to the complete assay medium. This minimizes further increases in ATPase rate during control assays to < 15%. To keep absorbance between 1.5 and 2 units after the 60-min preincubation, up to 0.2 mM additional NADH was added to the assay medium. In figures displaying activity traces, some traces are shifted vertically for visual clarity.

Test [2] has as its system FOF1 in membranes from P. denitrificans. The arrangement: method as in PMID 10672007. Particulars: cited from earlier work.
Test [3] concerns the target T2, E. coli membranes with FOF1 lacking the ε subunit's CTD (ε88-stop) (Escherichia coli, UniProt P68699).
T2 construct: To express haploid levels of EcFOF1 containing WT-ε or ε88-stop; expressed in transfected cells; host or cells: E. coli strain XH1 (chromosomal atpC deletion) carrying the ε88-stop version of pMBε1; inverted membrane vesicles
Put plainly: ATP hydrolysis by ε88-stop E. coli membranes, enzyme-coupled spectrophotometric assay. The class given is biochemical. Particulars: for pKi: VentA at half-max. inhibition (Ki), early inhibition; for ATPase at saturating ventA (y0) / VentA-sensitive ATPase (y1): best fit of early rates.
Excerpt: We next investigated whether the ε-inhibited state of EcFOF1 also impacts interactions of ventA with the enzyme. The N-terminal domain (NTD) of ε is required for FOF1 assembly and functional coupling of F1 to FO in eukaryotic and bacterial species; the C-terminal domain (CTD) of ε can auto-inhibit FOF1 and isolated F1 from some bacteria and from chloroplasts, but the mitochondrial homolog (δ) is not inhibitory[39],[40]. Thus we measured the effects of ventA on ATPase activity of E. coli membranes expressing ε88-stop, which lacks the autoinhibitory εCTD (Fig. 3). From Table 1 (100% ATPase values), it is clear that selenite activates membrane ATPase more (fourfold) for ε88-stop than for WT (2.8-fold). This is because, without the inhibitory εCTD, more enzyme complexes shift to the MgADP-inhibited state, which can be activated by selenite. […] In contrast, early inhibition of ATPase by ventA has similar Ki values for WT and ε88-stop membranes in the absence (0.7 vs 0.5 μM) or in the presence of selenite (0.23 vs 0.09 μM).
Plasmid pXH302S, which encodes the WT atpC gene and expresses near haploid levels of the ε subunit, was subjected to fusion PCR mutagenesis to construct plasmid pMBε1, with an N-terminal affinity tag ([…]) added prior to the initial Met residue. To express the ε88-stop subunit, an AfeI-ScaI restriction fragment of WT pMBε1 was replaced by the analogous fragment from pH6ε88-stop[46]. To express haploid levels of EcFOF1 containing WT-ε or ε88-stop, the appropriate version of pMBε1 was transformed into E. coli strain XH1, which has a chromosomal deletion of the atpC gene for ε[54]. For these transformed strains, cultures were grown and inverted membrane vesicles (IMV) were prepared according to [55]. WT ε, with the same N-terminal His6-tag, was over-expressed from pH6ε and purified as described.
as §1

[4] abbreviates: ε88stop + 38.5 mM selenite (Fig. 3B).

Turning to `CCC(=O)C(C)C(O)C(C)CC(C)C1OC(=O)CC2(O)CC=C(C)C(O2)C(C)=CCCCC(OC2CC(OC(N)=O)C(O)C(C)O2)C=CC(C)CC1C` (centres unmarked) [ventA, venturicidin A], the “Reduction of cellular ATP” value in the test on S. aureus (MRSA) strains (16 μg ventA/ml) is recorded as ~ 40%; with S. aureus (MRSA) strains (fourfold greater ventA than 16 μg/ml), ~ 90%. The “Concentration at which maximal effect on Δψ was achieved” value in the test on S. aureus (MRSA) strains (MRSA strain tested further) is recorded as 16 μg ventA/ml. Further, in the test with E. coli, the Adjuvant action result is reported as “minimal adjuvant action”. Moreover, the “Inhibition of early ATPase rate” value in test [1] was “up to 42%”. The “ATPase remaining at saturating ventA” value in test [1] (best fit of early rates) is reported as 62% (± 2). The “ventA-sensitive ATPase” value in test [1] (best fit of early rates) was 42% (± 3). For the same molecule, in test [1] (concentration-dependent), the “Late rate, recovery of activity as % of uninhibited rate” value is on record as “up to 140%”. Also, the values for the pKi in test [1] (read-out: Ki (inhibition of early rate)), in test [3] (ε88stop (Fig. 3A)) and in test [3] (setting [4]) were 5.92, 6.30 and 7.05, respectively. The “Sensitivity of ATPase to ventA inhibition, sulfite-activated vs PMF-activated FOF1” value in test [2] is “~ threefold”. For the same molecule, the “Ki for early inhibition lower in presence of selenite than in its absence” value in test [3] (ε88-stop membranes) is reported as “fivefold”. The “ATPase at saturating ventA (y0)” value in test [3] (ε88stop (Fig. 3A)) is 37% (± 3); in test [3] (setting [4]) it was 37% (± 2). For the same molecule, the “VentA-sensitive ATPase (y1)” value in test [3] (ε88stop (Fig. 3A)) is listed as 67% (± 4); in test [3] (setting [4]), 66% (± 4).

As usually defined, the pKi is the Ki on a negative log10 scale, so that one unit is a factor of ten.
